Assay results as given in patent EP1157985A1 (G.D. SEARLE & CO., priority 1996, dated 1997).
Counter-ions that a name gives are not always drawn. Like-named read-outs stand apart in the source and are kept apart here.

Experiments:
[1] = target: T1, Human fibrinogen receptor (αIIbβ3) (Homo sapiens, UniProt P05106+P08514); assay: Purified IIb/IIIa receptor assay (solid phase receptor assay, competition with biotinylated vitronectin); format: binding; settings: purified receptor from outdated platelets; 1 nM biotinylated vitronectin; highest concentration tested 1.0 x 10^-4 M
T1 construct: Human fibrinogen receptor (αIIbβ3) was purified from outdated platelets; from tissue; host or cells: outdated (human) platelets
Procedure, shortened: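 Platelet-derived αIIbβ3 coated at 1.0 µg/mL overnight at 4 °C in TBS with 1 mM Ca, Mg, Mn, pH 7.4, BSA-blocked; compounds competed with 1 nM biotinylated vitronectin (final; top compound 1.0 × 10^-4 M) for 2 h at room temperature. Bound ligand detected via HRP anti-biotin, A450; normalized to maximum binding, four-parameter fit.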

[2] = target: T2, Human vitronectin receptor (αvβ3) (Homo sapiens, UniProt P05106+P06756); assay: Vitronectin adhesion assay (solid phase receptor assay, competition with biotinylated vitronectin); format: binding
T2 construct: Human vitronectin receptor (αvβ3) was purified from human placenta; from tissue; host or cells: human placenta

[3] = purified receptor from human placenta; 1 nM biotinylated vitronectin; highest concentration tested 1.0 x 10^-4 M; read-out: AvB3 IC50

| Structure (SMILES) | IC50 [1] [nM] | IC50 [2, 3] [nM] | IC50 ([2]; read-out: AvB3 IC50; purified receptor from human placenta; 1 nM biotinylated vitronectin; highest concentration tested 1.0 x 10^-4 M) [nM] |
| --- | --- | --- | --- |
| O=C(O)CCc1ccc(NC(=O)c2cccc(NC3=NCCCN3)c2)cc1C(=O)O [Example 102, 2-carboxy-4-[[[3-[(1,4,5,6-tetrahydropyrimidin-2-yl)-amino]phenyl]carbonyl]amino]benzenepropanoic acid, trifluoroacetate salt] | 4710 | 6 |  |
| CC(C)CC(=O)NC(Cc1ccc(NC(=O)c2cc(NC(=N)N)cc(C(F)(F)F)c2)cc1)C(=O)O (stereo not shown) [Example 108, 4-[[[3-[(aminoiminomethyl)amino]-5-(trifluoromethyl)-phenyl]carbonyl]amino]-N-(3-methyl-1-oxobutyl) phenylalanine, trifluoroacetate salt] | 109 | 4 |  |
| CCOC(=O)C(Cc1ccc(NC(=O)c2cccc(NC(=N)N)c2)cc1)NC(C)=O (stereo not shown) [Example 34, N-acetyl-4-[[[3-[(aminoiminomethyl)amino]phenyl)carbonyl]amino]phenylalanine ethyl ester, trifluoroacetate salt] | 2200 | 45.2 |  |
| CC(C)(C)OC(=O)NC(Cc1ccc(NC(=O)c2cccc(N=C(N)N)c2)cc1)C(=O)O (stereo not shown) [Example 55, 4-[[[3-[(aminoiminomethyl)amino]phenyl]carbonyl]amino]-N-[(1,1-dimethylethoxy)carbonyl]-phenylalanine, monohydrate trifluoroacetate salt] | 14.3 | 0.51 |  |
| N=C(N)Nc1cccc(C(=O)Nc2ccc(C(CC(=O)O)c3ccccc3)cc2)c1 (stereo not drawn) [Example 33, 4-[[[3-[(aminoiminomethyl)amino]phenyl]carbonyl]amino]-β-phenylbenzenepropanoic acid, trifluoroacetate salt] | 7.37 | 73.6 |  |
| COc1cc(NC(=O)c2cccc(NC3=NCCCN3)c2)ccc1OCC(=O)O [Example 119, [2-methoxy-4-[[[3-[(1,4,5,6-tetrahydropyrimidin-2-yl]-amino]phenyl]carbonyl]amino]phenoxy]acetic acid, trifluoroacetate salt] | 772 | 0.4 |  |
| COC(=O)c1cc(NC(=O)c2cccc(NC(=N)N)c2)ccc1CCC(=O)O [Example 101B, 4-[[[3-[(aminoiminomethyl)amino]phenyl]carbonyl]-amino]-2-methoxycarbonyl)benzenepropanoic acid, bis(trifluoroacetate) salt] | 286 | 35 |  |
| CC(C)(C)OC(=O)CCc1ccc(CCNC(=O)c2cccc(NC(=N)N)c2)cc1 [Example 58, monohydrate trifluoroacetate salt] | 57200 |  | 48400 |
